Among the data in patent US11957759B1, “Rapidly accelerated fibrosarcoma (RAF) degrading compounds and associated methods of use” (Arvinas Operations, Inc., priority 2022, dated 2024) are DC50 and Dmax values, retold here.

In general, DC50 refers to the concentration giving 50% degradation. A high value points to a less potent degrader. Usually Dmax stands for the greatest extent of degradation seen. High values mean deep degradation, low ones shallow degradation.

The target in one test is T1, B-RAF V600E (Homo sapiens, UniProt P15056, V600E).
T1 construct: expressed in transfected cells; host or cells: T-Rex 293 cells (Invitrogen #R71007)
The test is described as follows: Target protein degradation, assay C: T-Rex 293 cells, HA-BRAF_V600E, 384 well format. The following applies: T-Rex 293 HA-BRAF_V600E cells, 24 hours, Examples 83-269; for DC50: Assay C; for Dmax: T-REx-293, Assay C. Format: cell-based. Summed up:
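After 24 h exposure to an 11-point 1:3 series (300 nM–5 pM, 0.5% DMSO), fixed T-Rex 293 cells carrying HA-BRAF V600E (induced with 1 ng/mL doxycycline) were stained anti-HA and imaged. DC50 and Dmax were derived from BRAF intensity relative to control, and cytotoxicity from nuclear counts.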

For a further test, the target named is T2, B-RAF G466V (Homo sapiens, UniProt P15056, G466V).
T2 construct: expressed in transfected cells; host or cells: T-Rex 293 cells (Invitrogen #R71007)
Kind of test: Target protein degradation, assay D: T-Rex 293 cells, HA-BRAF_G466V, 384 well format. Format: cell-based. The following applies: T-Rex 293 HA-BRAF_G466V cells, 24 hours, Examples 83-269; for DC50: Assay D; for Dmax: T-REx-293, Assay D. Summed up: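 Degradation measured by high-content imaging of anti-HA immunofluorescence in fixed T-Rex 293 cells carrying inducible HA-BRAF G466V (1 ng/mL doxycycline), after 24 h PROTAC exposure at 37 °C over 300 nM–5 pM (1:3, 11 points, 0.5% DMSO). Outputs DC50 and Dmax as % of control; nuclei counts against DMSO wells gauge toxicity.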

T2 sequence (P15056 whole entry G466V): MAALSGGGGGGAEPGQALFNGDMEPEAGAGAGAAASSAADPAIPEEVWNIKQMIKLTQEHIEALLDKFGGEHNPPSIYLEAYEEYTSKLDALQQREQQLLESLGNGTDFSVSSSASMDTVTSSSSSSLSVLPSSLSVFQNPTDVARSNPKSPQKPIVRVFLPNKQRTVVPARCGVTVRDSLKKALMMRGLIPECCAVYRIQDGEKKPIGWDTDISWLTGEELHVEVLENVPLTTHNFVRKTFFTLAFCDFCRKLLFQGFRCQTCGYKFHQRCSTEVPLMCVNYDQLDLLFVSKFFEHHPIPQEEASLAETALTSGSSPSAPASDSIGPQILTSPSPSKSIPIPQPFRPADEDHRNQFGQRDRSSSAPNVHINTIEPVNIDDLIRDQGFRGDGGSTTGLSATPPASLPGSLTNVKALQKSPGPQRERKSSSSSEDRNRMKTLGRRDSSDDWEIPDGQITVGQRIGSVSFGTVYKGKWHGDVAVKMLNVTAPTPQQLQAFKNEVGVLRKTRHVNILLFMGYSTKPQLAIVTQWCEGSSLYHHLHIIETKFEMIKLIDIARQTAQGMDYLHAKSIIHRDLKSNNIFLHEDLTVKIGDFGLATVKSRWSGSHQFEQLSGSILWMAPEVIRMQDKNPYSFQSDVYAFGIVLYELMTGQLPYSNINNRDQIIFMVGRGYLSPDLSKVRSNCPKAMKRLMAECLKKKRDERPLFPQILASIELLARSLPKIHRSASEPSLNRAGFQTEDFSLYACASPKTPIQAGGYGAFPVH
T1 sequence (P15056 whole entry V600E): as the sequence (P15056 whole entry G466V) above, with V466G, V600E counted along it

At B-RAF V600E, `N#Cc1c(NS(=O)(=O)N2CC[C@@H](F)C2)ccc(F)c1Oc1ccc2ncn(-c3ccc(N4CCC(CN5CCN(CC6CCN(c7ccc8c(c7)C(=O)N(C7CCC(=O)NC7=O)C8=O)CC6)CC5)CC4)nc3)c(=O)c2c1` (stereo partly drawn) [Example 147, (3R)-N-[2-cyano-3-({3-[6-(4-{[4-({1-[2-(2,6-dioxopiperidin-3-yl)-1,3-dioxo-2,3-dihydro-1H-isoindol-5-yl]piperidin-4-yl}methyl)piperazin-1-yl]methyl}piperidin-1-yl)pyridin-3-yl]-4-oxo-3,4-dihydroquinazolin-6-yl}oxy)-4-fluorophenyl]-3-fluoropyrrolidine-1-sulfonamide] gave a DC50 of 5 to 50 nM and a Dmax of 35 to 70%. Further, at B-RAF G466V, the DC50 is 1 to 10 nM and the maximal degradation (Dmax) fell in the range of 35 to 70%.

As to `N#Cc1c(NS(=O)(=O)N2CC[C@@H](F)C2)ccc(F)c1Oc1ccc2ncn(-c3ccc(N4CCC5(CCN(c6ccc7c(c6)C(=O)N(C6CCC(=O)NC6=O)C7=O)CC5)CC4)nc3)c(=O)c2c1` (stereo partly drawn) [Example 148, (3R)-N-(2-cyano-3-{[3-(6-{9-[2-(2,6-dioxopiperidin-3-yl)-1,3-dioxo-2,3-dihydro-1H-isoindol-5-yl]-3,9-diazaspiro[5.5]undecan-3-yl}pyridin-3-yl)-4-oxo-3,4-dihydroquinazolin-6-yl]oxy}-4-fluorophenyl)-3-fluoropyrrolidine-1-sulfonamide], at B-RAF V600E, the DC50 was 50 to 500 nM and the Dmax was ≤ 35%. In addition, at B-RAF G466V, the DC50 was > 30 nM.

As for `N#Cc1c(NS(=O)(=O)N2CC[C@@H](F)C2)ccc(F)c1Oc1ccc2ncn(-c3ccc(N4CCC(CN5CCC(Oc6ccc7c(c6)C(=O)N(C6CCC(=O)NC6=O)C7=O)CC5)CC4)nc3)c(=O)c2c1` (stereo partly drawn) [Example 149, (3R)-N-(2-cyano-3-{[3-(6-{4-[(4-{[2-(2,6-dioxopiperidin-3-yl)-1,3-dioxo-2,3-dihydro-1H-isoindol-5-yl]oxy}piperidin-1-yl)methyl]piperidin-1-yl}pyridin-3-yl)-4-oxo-3,4-dihydroquinazolin-6-yl]oxy}-4-fluorophenyl)-3-fluoropyrrolidine-1-sulfonamide], at B-RAF V600E, the DC50 was 5 to 50 nM and the Dmax is ≤ 35%. For the same compound, at B-RAF G466V, the DC50 is 10 to 30 nM and the Dmax was 35 to 70%.

In the case of `N#Cc1c(NS(=O)(=O)N2CC[C@@H](F)C2)ccc(F)c1Oc1ccc2ncn(-c3ccc(N4CCN(CCCOc5cccc6c5C(=O)N(C5CCC(=O)NC5=O)C6=O)CC4)nc3)c(=O)c2c1` (stereo partly drawn) [Example 150, (3R)-N-{2-cyano-3-[(3-{6-[4-(3-{[2-(2,6-dioxopiperidin-3-yl)-1,3-dioxo-2,3-dihydro-1H-isoindol-4-yl]oxy}propyl)piperazin-1-yl]pyridin-3-yl}-4-oxo-3,4-dihydroquinazolin-6-yl)oxy]-4-fluorophenyl}-3-fluoropyrrolidine-1-sulfonamide], the DC50 at B-RAF V600E was ≤ 5 nM; on B-RAF G466V, ≤ 1 nM. Moreover, the Dmax at B-RAF V600E was 35 to 70%; at B-RAF G466V, ≤ 35%.

With `N#Cc1c(NS(=O)(=O)N2CC[C@@H](F)C2)ccc(F)c1Oc1ccc2ncn(-c3cnc(N4CCN(CCN5CCN(c6ccc7c(c6)CN(C6CCC(=O)NC6=O)C7=O)CC5)CC4)nc3)c(=O)c2c1` (stereo partly drawn) [Example 151, (3R)-N-{2-cyano-3-[(3-{2-[4-(2-{4-[2-(2,6-dioxopiperidin-3-yl)-1-oxo-2,3-dihydro-1H-isoindol-5-yl]piperazin-1-yl}ethyl)piperazin-1-yl]pyrimidin-5-yl}-4-oxo-3,4-dihydroquinazolin-6-yl)oxy]-4-fluorophenyl}-3-fluoropyrrolidine-1-sulfonamide], at B-RAF V600E, the DC50 fell in the range of 5 to 50 nM and the Dmax is 35 to 70%. In addition, on B-RAF G466V, the DC50 was in the range of 1 to 10 nM and the Dmax was 35 to 70%.

On B-RAF V600E, `CC(C)(C1CCN(c2ncc(-n3cnc4ccc(Oc5c(F)ccc(NS(=O)(=O)N6CC[C@@H](F)C6)c5C#N)cc4c3=O)cn2)CC1)N1CCN(c2ccc3c(c2)C(=O)N(C2CCC(=O)NC2=O)C3=O)CC1` (stereo partly drawn) [Example 152, (3R)-N-{2-cyano-3-[(3-{2-[4-(2-{4-[2-(2,6-dioxopiperidin-3-yl)-1,3-dioxo-2,3-dihydro-1H-isoindol-5-yl]piperazin-1-yl}propan-2-yl)piperidin-1-yl]pyrimidin-5-yl}-4-oxo-3,4-dihydroquinazolin-6-yl)oxy]-4-fluorophenyl}-3-fluoropyrrolidine-1-sulfonamide] came in with a 50% degradation concentration (DC50) of 50 to 500 nM and a Dmax of 35 to 70%. Further, at B-RAF G466V, the DC50 was 1 to 10 nM and the Dmax was ≤ 35%.

Regarding `N#Cc1c(NS(=O)(=O)N2CC[C@@H](F)C2)ccc(F)c1Oc1ccc2ncn(-c3cnc(N4CCC(CN5CC6(C5)CN(c5cccc7c5C(=O)N(C5CCC(=O)NC5=O)C7=O)C6)CC4)nc3)c(=O)c2c1` (stereo partly drawn) [Example 153, (3R)-N-{2-cyano-3-[(3-{2-[4-({6-[2-(2,6-dioxopiperidin-3-yl)-1,3-dioxo-2,3-dihydro-1H-isoindol-4-yl]-2,6-diazaspiro[3.3]heptan-2-yl}methyl)piperidin-1-yl]pyrimidin-5-yl}-4-oxo-3,4-dihydroquinazolin-6-yl)oxy]-4-fluorophenyl}-3-fluoropyrrolidine-1-sulfonamide], the figures for the DC50 at B-RAF V600E and on B-RAF G466V were 50 to 500 nM and > 30 nM, respectively. Further, the Dmax at B-RAF V600E fell in the range of 35 to 70%.

Regarding `N#Cc1c(NS(=O)(=O)N2CC[C@@H](F)C2)ccc(F)c1Oc1ccc2ncn(-c3cnc(N4CC5(CN(CC6CCN(c7cccc8c7C(=O)N(C7CCC(=O)NC7=O)C8=O)CC6)C5)C4)nc3)c(=O)c2c1` (stereo partly drawn) [Example 154, (3R)-N-{2-cyano-3-[(3-(2-[6-({1-[2-(2,6-dioxopiperidin-3-yl)-1,3-dioxo-2,3-dihydro-1H-isoindol-4-yl]piperidin-4-yl}methyl)-2,6-diazaspiro[3.3]heptan-2-yl]pyrimidin-5-yl}-4-oxo-3,4-dihydroquinazolin-6-yl)oxy]-4-fluorophenyl}-3-fluoropyrrolidine-1-sulfonamide], the figures for the DC50 on B-RAF V600E and on B-RAF G466V were 50 to 500 nM and 10 to 30 nM, respectively. In addition, the Dmax at B-RAF V600E and at B-RAF G466V was ≤ 35% throughout.

Take `N#Cc1c(NS(=O)(=O)N2CC[C@@H](F)C2)ccc(F)c1Oc1ccc2ncn(-c3cnc(N4CCC(C5CN(c6ccc7c(c6)C(=O)N(C6CCC(=O)NC6=O)C7=O)C5)CC4)nc3)c(=O)c2c1` (stereo partly drawn) [Example 155]: the DC50 at B-RAF V600E was > 500 nM; at B-RAF G466V, 1 to 10 nM. In addition, at B-RAF G466V, the Dmax is ≤ 35%.

For `N#Cc1c(NS(=O)(=O)N2CC[C@@H](F)C2)ccc(F)c1Oc1ccc2ncn(-c3cnc(N4CCC(CC5CCCN5c5ccc6c(c5)C(=O)N(C5CCC(=O)NC5=O)C6=O)CC4)nc3)c(=O)c2c1` (stereo partly drawn) [Example 156, (3R)-N-{2-cyano-3-[(3-{2-[4-({1-[2-(2,6-dioxopiperidin-3-yl)-1,3-dioxo-2,3-dihydro-1H-isoindol-5-yl]pyrrolidin-2-yl}methyl)piperidin-1-yl]pyrimidin-5-yl}-4-oxo-3,4-dihydroquinazolin-6-yl)oxy]-4-fluorophenyl}-3-fluoropyrrolidine-1-sulfonamide], the values for the DC50 on B-RAF V600E and at B-RAF G466V were 50 to 500 nM and > 30 nM, respectively. Further, the Dmax at B-RAF V600E is 35 to 70%.
